Measured values from US10051861B2, “N-arylamidine-substituted trifluoroethyl sulfide derivatives as acaricides and insecticides” (BAYER CROPSCIENCE AG, priority 2011, dated 2018).

system: greenhouse red spider mite (Tetranychus urticae); assay: Tetranychus urticae spray test, OP-resistant (TETRUR), bean leaf disks; assay type: in vivo; conditions: Tetranychus urticae, foliar, 144 h, application rate 500 g/ha, after 6 days; read-out: efficacy (spider mites killed)
Description: After 6 days, the effect in % is determined.

Structure (SMILES) | pest or weed control at 500 g/ha
Cc1cc(F)c(/N=C(\N)C2(C#N)CC2)cc1[S+]([O-])CC(F)(F)F (centres unmarked) [Ib-72] | 100%
Cc1cc(F)c(/N=C(/c2ccc(Cl)cc2)N(C)C)cc1[S+]([O-])CC(F)(F)F (centres unmarked) [Ib-73] | 90%
Cc1cc(F)c(/N=C(/NCc2ccccc2)C(F)(F)F)cc1[S+]([O-])CC(F)(F)F (centres unmarked) [Ib-74] | 90%
Cc1cc(F)c(/N=C(\c2ccc(C(F)(F)F)nc2)N(C)C)cc1[S+]([O-])CC(F)(F)F (centres unmarked) [Ib-75] | 100%
CN/C(=N\c1cc([S+]([O-])CC(F)(F)F)c(C)cc1F)c1cccc(Cl)c1 (centres unmarked) [Ib-76] | 100%
Cc1cc(C)c([S+]([O-])CC(F)(F)F)cc1/N=C(\N)C1(Cl)CC1 (centres unmarked) [Ib-79] | 100%
N/C(=N\c1cc([S+]([O-])CC(F)(F)F)c(Cl)cc1Cl)C(F)F (centres unmarked) [Ib-80] | 100%
Cc1cc(F)c(/N=C(\c2cccs2)N(C)C)cc1[S+]([O-])CC(F)(F)F (centres unmarked) [Ib-81] | 100%
Cc1cc(F)c(/N=C(\c2cccn2C)N(C)C)cc1[S+]([O-])CC(F)(F)F (centres unmarked) [Ib-82] | 100%
CCN/C(=N\c1cc([S+]([O-])CC(F)(F)F)c(C)cc1F)c1cccnc1 (centres unmarked) [Ib-84] | 100%
Cc1cc(F)c(/N=C(\c2ccccc2F)N(C)C)cc1[S+]([O-])CC(F)(F)F (centres unmarked) [Ib-87] | 100%
Cc1cc(F)c(/N=C(\NC2CC2)c2ccc(Cl)nc2)cc1[S+]([O-])CC(F)(F)F (centres unmarked) [Ib-88] | 100%
CN/C(=N\c1cc([S+]([O-])CC(F)(F)F)c(Cl)cc1C)C(F)(F)F (centres unmarked) [Ib-90] | 100%
Cc1cc(F)c(/N=C(/NC2CS(=O)(=O)C2)C(F)(F)F)cc1[S+]([O-])CC(F)(F)F (centres unmarked) [Ib-91] | 90%
CN/C(=N/c1cc([S+]([O-])CC(F)(F)F)c(C)cc1F)c1ccc(C(F)(F)F)nc1 (centres unmarked) [Ib-92] | 100%
Cc1cc(C)c([S+]([O-])CC(F)(F)F)cc1/N=C(\N)c1ccc(Cl)nc1 (centres unmarked) [Ib-94] | 100%
CN/C(=N\c1cc([S+]([O-])CC(F)(F)F)c(Cl)cc1Cl)c1cccnc1 (centres unmarked) [Ib-95] | 100%
Cc1cc(F)c(/N=C(/N2CCCC2)C(F)(F)F)cc1[S+]([O-])CC(F)(F)F (centres unmarked) [Ib-96] | 90%
CN/C(=N\c1cc([S+]([O-])CC(F)(F)F)c(C)cc1F)c1ccncc1 (centres unmarked) [Ib-97] | 100%

Structure (SMILES) | pest or weed control at 500 g/ha
Cc1cc(C)c([S+]([O-])CC(F)(F)F)cc1/N=C(/c1cccnc1)N(C)C (centres unmarked) [Ib-98] | 100%
Cc1cc(F)c(/N=C(\N)C2CCC2)cc1[S+]([O-])CC(F)(F)F (centres unmarked) [Ib-99] | 100%
CN/C(=N\c1cc([S+]([O-])CC(F)(F)F)c(C)cc1C)c1ccc(Cl)cc1 (centres unmarked) [Ib-100] | 100%
Cc1cc(C)c([S+]([O-])CC(F)(F)F)cc1/N=C(\N)c1ccccn1 (centres unmarked) [Ib-102] | 90%
CN/C(=N\c1cc([S+]([O-])CC(F)(F)F)c(Cl)cc1C)c1cccnc1 (centres unmarked) [Ib-103] | 90%
CN/C(=N\c1cc([S+]([O-])CC(F)(F)F)c(C)cc1F)c1cnc(Cl)c(Cl)c1 (centres unmarked) [Ib-104] | 90%
CN/C(=N\c1cc([S+]([O-])CC(F)(F)F)c(Cl)cc1Cl)c1ccccn1 (centres unmarked) [Ib-109] | 100%
Cc1cc(C)c([S+]([O-])CC(F)(F)F)cc1/N=C1\CCCN1C(C)C(F)(F)F (centres unmarked) [Ib-112] | 100%
CN/C(=N/c1cc([S+]([O-])CC(F)(F)F)c(C)cc1F)c1cccc(C(F)(F)F)c1 (centres unmarked) [Ib-113] | 100%
Cc1cc(F)c(/N=C(\c2cccc(C(F)(F)F)c2)N(C)C)cc1[S+]([O-])CC(F)(F)F (centres unmarked) [Ib-114] | 100%
Cc1cc(F)c(/N=C2\SCC(=O)N2CC(F)F)cc1[S+]([O-])CC(F)(F)F (centres unmarked) [Ib-116] | 90%
O=C1CS/C(=N\c2cc([S+]([O-])CC(F)(F)F)ccc2F)N1CC(F)(F)F (centres unmarked) [Ib-117] | 100%
Cc1cc(F)c(/N=C(/N)c2ccc(Cl)cc2)cc1[S+]([O-])CC(F)(F)F (centres unmarked) [Ib-118] | 100%
CN(C)/C(=N\c1cc([S+]([O-])CC(F)(F)F)c(Cl)cc1Cl)c1ccc(Cl)nc1 (centres unmarked) [Ib-119] | 100%
O=C1CS/C(=N\c2cc([S+]([O-])CC(F)(F)F)c(Cl)cc2F)N1CC(F)(F)F (centres unmarked) [Ib-120] | 100%
O=C1CS/C(=N\c2cc([S+]([O-])CC(F)(F)F)ccc2Cl)N1CC(F)(F)F (centres unmarked) [Ib-121] | 100%
O=C1CS/C(=N\c2cc([S+]([O-])CC(F)(F)F)c(Cl)cc2Cl)N1C1CC1 (centres unmarked) [Ib-122] | 90%
Cc1cc(F)c(/N=C(\c2ccc(C(F)(F)F)cc2)N(C)C)cc1[S+]([O-])CC(F)(F)F (centres unmarked) [Ib-124] | 90%
CN/C(=N/c1ccc(C)c([S+]([O-])CC(F)(F)F)c1)C(F)(F)F (centres unmarked) [Ib-125] | 100%
